Assay results taken from patent US8946421B2, “Lipidated imidazoquinoline derivatives” (GlaxoSmithKline Biologicals S.A., priority 2008, dated 2015).

Tests used:
Assay type in all cases: in vivo
[1] = tested on: C57BL/6 (H2Kb), female mice; assay: antigen-specific CD4 T cell response, intracellular cytokine staining of PBLs after vaccination; settings: liposome-based MPL and QS-21-containing formulation; vs control formulation; dose dependent; FIG. 4
Procedure: (§1) Formulation of the compounds for a comparison study requires taking into account the different molecular weights of the core and lipidated molecules, (e.g. 45 and 4.5 μg of the lipidated compound L3 corresponds to approximately to 15 and 1.5 μg of the corresponding core compound, “L3 core”), allowing for the side by side comparison of the corresponding groups in the study. Higher doses of L3 (200 μg) and of L3 core (150 μg) are also tested. In one such study formulations summarized and described below (table 1) are used to vaccinate 6-8 week old C57BL/6 (H2Kb), female mice (10/group). The mice receive two injections 14 days apart and are bled during weeks 1, 3 and 4 (for precise bleed days see FIG. 1). The mice are vaccinated intramuscularly. A heterologous prime/boost using recombinant adenovirus coding for the SIV-p27 protein and adjuvanted p27 are used as control groups, the adenovirus is injected at a dose of 5×10^8 VP. The study design is represented in FIG. 1. […]
(§2) The induction of antigen-specific CD8 and CD4 responses is assessed by measuring intracellular cytokines 7 days after the second injection. […] The secretion of cytokines is blocked by Brefeldin A and the presence of 3 cytokines (IFNγ, TNFα and IL2) is evaluated by flow cytometry after intracellular staining with appropriate antibodies.

[2] = tested on: C57BL/6 (H2Kb), female mice; assay: serum cytokine response after first injection; settings: sera of mice 3 and 24 hrs after the first injection
Procedure: Formulation of the compounds for a comparison study requires taking into account the different molecular weights of the core and lipidated molecules, (e.g. 45 and 4.5 μg of the lipidated compound L3 corresponds to approximately to 15 and 1.5 μg of the corresponding core compound, “L3 core”), allowing for the side by side comparison of the corresponding groups in the study. Higher doses of L3 (200 μg) and of L3 core (150 μg) are also tested. In one such study formulations summarized and described below (table 1) are used to vaccinate 6-8 week old C57BL/6 (H2Kb), female mice (10/group). The mice receive two injections 14 days apart and are bled during weeks 1, 3 and 4 (for precise bleed days see FIG. 1). The mice are vaccinated intramuscularly. A heterologous prime/boost using recombinant adenovirus coding for the SIV-p27 protein and adjuvanted p27 are used as control groups, the adenovirus is injected at a dose of 5×10^8 VP. The study design is represented in FIG. 1.
Additional investigation illustrates the ability of lipidated TLR7/8 compounds to induce innate chemokines and pro-inflammatory cytokines among which type I IFN is known to be required for the programming of naïve CD8-T-cell (survival, differentiate and memory development). These cytokines are measured in the sera of mice 3 and 24 hrs after the first injection (FIGS. 5 and 6).

[3] = tested on: C57BL/6 (H2Kb), female mice; assay: p27-specific CD8 response, intracellular cytokine staining of PBLs after vaccination; settings: 7 days after the second immunization; co-administered with MPL and QS-21 formulations; vs control formulation without TLR7/8L; intramuscular; FIG. 2
Procedure: as §1, §2

Structure (SMILES): CCCCCCCCCCCCCCCC(=O)OC[C@H](COP(=O)(O)OCCn1c(COCC)nc2c(N)nc3ccccc3c21)OC(=O)CCCCCCCCCCCCCCC [Compound L3, 4-Amino-1-[2-(1,2-dipalmitoyl-sn-glycero-3-phospho)ethyl]-2-ethoxymethyl-1H-imidazo[4,5-c]quinoline]
- p27-specific CD4 frequency [1]: increased
- IL-6 in serum ([2]; added to QS21 and MPL): enhanced
- TNFα in serum ([2]; added to QS21 and MPL): enhanced
- IL-12p70 production in serum ([2]; with QS21 and MPL): Low IL-12p70 production, close to background level
- Level of INFγ in serum ([2]; with QS21 and MPL): increased at low dose
- IFNα in serum ([2]; with QS21 and MPL, FIGS. 5 and 6): in a dose-dependent manner and at higher level than for its core counterpart
- p27-specific CD8 frequency [3]: clearly increased
